One assay deals with T1, AXL (Homo sapiens, UniProt P30530).
T1 construct: endogenous in cells; host or cells: A-172 glioblastoma cells (ATCC #CRL-1620)
T1 sequence (P30530 26-894): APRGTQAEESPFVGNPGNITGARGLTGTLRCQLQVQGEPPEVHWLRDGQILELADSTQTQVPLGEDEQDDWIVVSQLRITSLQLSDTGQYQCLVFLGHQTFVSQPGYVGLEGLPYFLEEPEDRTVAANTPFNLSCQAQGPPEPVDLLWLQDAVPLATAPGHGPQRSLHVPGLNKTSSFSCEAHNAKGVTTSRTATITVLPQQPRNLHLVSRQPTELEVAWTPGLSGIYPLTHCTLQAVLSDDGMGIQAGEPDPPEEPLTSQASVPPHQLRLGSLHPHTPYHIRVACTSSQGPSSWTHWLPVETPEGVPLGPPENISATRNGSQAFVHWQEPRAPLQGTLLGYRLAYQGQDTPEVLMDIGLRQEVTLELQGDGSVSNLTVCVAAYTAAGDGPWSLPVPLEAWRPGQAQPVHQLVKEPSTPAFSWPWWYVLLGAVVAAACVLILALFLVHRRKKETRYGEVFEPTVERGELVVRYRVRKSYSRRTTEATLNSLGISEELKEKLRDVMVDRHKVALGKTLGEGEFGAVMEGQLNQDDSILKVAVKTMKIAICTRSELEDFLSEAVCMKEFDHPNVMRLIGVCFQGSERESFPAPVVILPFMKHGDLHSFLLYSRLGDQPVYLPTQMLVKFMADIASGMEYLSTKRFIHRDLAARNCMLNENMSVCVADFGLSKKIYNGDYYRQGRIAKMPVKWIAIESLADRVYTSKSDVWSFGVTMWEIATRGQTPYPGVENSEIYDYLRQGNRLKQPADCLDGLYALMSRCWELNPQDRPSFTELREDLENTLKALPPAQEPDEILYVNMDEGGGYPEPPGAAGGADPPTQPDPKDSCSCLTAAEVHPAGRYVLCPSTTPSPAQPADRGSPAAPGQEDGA
In words: AXL autophosphorylation ELISA in A-172 cells. It is filed as cell-based. The conditions noted are these: Table 3 Cellular Activities, Gas6-stimulated, phospho-AXL ELISA. How it is done: A-172 glioblastoma cells (ATCC #CRL-1620) were seeded at 2.5×10^5 cells/well onto 24-well plates (Greiner #662165), in DMEM (Thermo Fisher #11995-040) containing 10% FBS (Thermo Fisher #26140-079), 1% MEM NEAA (Thermo Fisher #11140-050), 1% GlutaMax (Thermo Fisher #35050-061), and 1% Penicillin Streptomycin (Thermo Fisher #15140-122). A-172 cells were incubated at 37° C., 5% CO2 for 24 h and then starved for 24 h in serum-free medium. Test compounds were serially diluted to produce an 8-point dose curve in fresh serum-free medium to a final concentration of 0.3% DMSO (vehicle) and added to the cells and incubated for 1 h. Cells were then stimulated with 1 μg/mL recombinant human Gas6 (R&D Systems #885-GSB-500) for 15 min, washed with cold PBS, and immediately lysed with 150 μL of cold 1× lysis buffer [20 mM Tris, 137 mM sodium chloride, 2 mM EDTA, 10% glycerol, 1% NP-40 alternative, 1 mM activated sodium orthovanadate, 1 mM PefaBloc SC (Sigma-Aldrich #11429868001), protease/phosphatase inhibitor tablet (Thermo Fisher #A32959)]. Lysates were collected and 100 μL/well added into the human phospho-AXL DuoSet IC ELISA (R&D Systems #DYC2228-2). Assay was performed according to manufacturer's instructions and sample phospho-AXL concentrations were extrapolated using human phospho-AXL control (R&D Systems #841645) as a standard. Positive control wells (100% activity) contained Gas6-stimulated, DMSO-treated cell lysates. Negative control wells (0% activity) contained Gas6-stimulated, reference inhibitor-treated cell lysates. IC50 values were calculated by nonlinear regression analysis using a 4-parameter logistic curve fit in ActivityBase XE (IDBS).
(In an ELISA, binding on a coated surface is turned into a signal by an enzyme label.)

For a further assay, the target named is Met (Homo sapiens, UniProt P08581). In words: Met autophosphorylation ELISA in PC-3 cells. Type of assay: cell-based. Also on record: endogenous in cells; host or cells: PC-3 prostate cancer cells (ATCC #CRL-1435). The note with it: Table 3 Cellular Activities, HGF-stimulated, phospho-Met ELISA, read-out: c-Met IC50. A digest of the protocol:
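Serum-starved (3 h) PC-3 cells pre-incubated 1 h with compound (8-point dose curve, 0.3% DMSO), then stimulated with 100 ng/mL recombinant human HGF for 10 min. Lysate phospho-Met (panTyr) measured by sandwich ELISA; IC50 from 4-parameter logistic fit, normalised to DMSO (100%) and reference-inhibitor (0%) controls.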

For orientation: IC50 means the concentration that gives 50% inhibition.

Structures can show the parent of a compound that is named as a salt. Some results are limits rather than exact numbers.

Chain of Met (P08581 25-1390): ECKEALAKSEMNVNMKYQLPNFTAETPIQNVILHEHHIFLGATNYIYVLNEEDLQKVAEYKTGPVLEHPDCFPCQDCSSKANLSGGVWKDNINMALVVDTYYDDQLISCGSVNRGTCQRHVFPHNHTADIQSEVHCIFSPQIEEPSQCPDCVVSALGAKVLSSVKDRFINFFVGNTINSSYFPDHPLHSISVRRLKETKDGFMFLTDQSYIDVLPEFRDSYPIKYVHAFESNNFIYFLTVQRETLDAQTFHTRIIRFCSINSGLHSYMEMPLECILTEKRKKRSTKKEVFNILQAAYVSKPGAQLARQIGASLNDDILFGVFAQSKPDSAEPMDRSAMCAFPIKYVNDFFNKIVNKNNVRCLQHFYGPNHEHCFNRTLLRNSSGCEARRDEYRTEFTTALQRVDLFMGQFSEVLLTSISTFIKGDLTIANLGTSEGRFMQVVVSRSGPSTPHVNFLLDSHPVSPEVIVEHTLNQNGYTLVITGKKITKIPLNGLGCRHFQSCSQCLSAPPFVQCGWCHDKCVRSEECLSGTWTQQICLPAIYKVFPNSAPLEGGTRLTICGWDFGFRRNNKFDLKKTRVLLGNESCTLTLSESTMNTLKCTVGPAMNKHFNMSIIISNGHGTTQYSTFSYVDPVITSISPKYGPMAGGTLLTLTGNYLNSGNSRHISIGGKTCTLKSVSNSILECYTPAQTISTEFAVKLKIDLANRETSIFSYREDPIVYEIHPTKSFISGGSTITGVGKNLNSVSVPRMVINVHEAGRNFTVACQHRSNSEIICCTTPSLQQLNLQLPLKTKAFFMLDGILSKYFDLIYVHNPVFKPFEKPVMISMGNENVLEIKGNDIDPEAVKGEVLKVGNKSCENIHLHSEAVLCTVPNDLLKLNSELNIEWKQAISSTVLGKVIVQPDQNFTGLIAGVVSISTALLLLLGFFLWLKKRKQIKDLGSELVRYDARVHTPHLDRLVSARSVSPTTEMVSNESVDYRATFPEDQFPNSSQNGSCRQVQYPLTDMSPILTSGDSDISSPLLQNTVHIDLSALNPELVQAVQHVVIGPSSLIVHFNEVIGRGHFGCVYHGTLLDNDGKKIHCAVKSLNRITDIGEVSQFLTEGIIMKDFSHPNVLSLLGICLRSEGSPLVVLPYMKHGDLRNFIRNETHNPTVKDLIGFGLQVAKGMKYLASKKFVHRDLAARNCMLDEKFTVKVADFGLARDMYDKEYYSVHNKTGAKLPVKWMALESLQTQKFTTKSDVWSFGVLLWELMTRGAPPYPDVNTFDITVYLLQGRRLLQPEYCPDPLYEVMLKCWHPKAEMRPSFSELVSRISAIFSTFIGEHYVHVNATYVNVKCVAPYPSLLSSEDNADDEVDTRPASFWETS

As to `COc1cnc2c(Oc3ccc(NC(=O)c4c(C)nc(C)c(-c5ccc(F)cn5)c4O)cc3F)ccnc2c1` [Compound 217, N-[3-Fluoro-4-[(7-methoxy-1,5-naphthyridin-4-yl)oxy]phenyl]-5-(5-fluoropyridin-2-yl)-4-hydroxy-2,6-dimethylpyridine-3-carboxamide], the IC50 against AXL and at Met was ≤ 100 nM throughout.

Regarding `COc1cc2c(Oc3ccc(NC(=O)c4c(C)ncc(-c5ccccn5)c4O)cc3F)ccnc2cn1` [Compound 223, N-[3-Fluoro-4-[(6-methoxy-1,7-naphthyridin-4-yl)oxy]phenyl]-4-hydroxy-2-methyl-5-pyridin-2-ylpyridine-3-carboxamide], the IC50 against AXL and at Met was ≤ 100 nM throughout.

With `COc1cc2nccc(Oc3ccc(NC(=O)c4cnc(C)c(-c5ccco5)c4O)cc3)c2cc1OC` [Compound 258, N-[4-(6,7-Dimethoxyquinolin-4-yl)oxyphenyl]-5-(furan-2-yl)-4-hydroxy-6-methylpyridine-3-carboxamide], the IC50 against AXL and at Met was ≤ 100 nM in each case.

For `COc1cc2nccc(Oc3ccc(NC(=O)c4c5n(cc(-c6ccoc6)c4=O)CCOC5)cc3)c2nc1OC` [Compound 310, N-[4-[(6,7-Dimethoxy-1,5-naphthyridin-4-yl)oxy]phenyl]-7-(furan-3-yl)-8-oxo-3,4-dihydro-1H-pyrido[2,1-c][1,4]oxazine-9-carboxamide], the IC50 on AXL was ≤ 100 nM; at Met it was 300 to 1000 nM.

`COc1cc2nccc(Oc3ccc(NC(=O)c4c(C)n(C)c(C)c(-c5cc6ccccc6o5)c4=O)cc3F)c2nc1OC` [Compound 261, 5-(1-Benzofuran-2-yl)-N-[4-[(6,7-dimethoxy-1,5-naphthyridin-4-yl)oxy]-3-fluorophenyl]-1,2,6-trimethyl-4-oxopyridine-3-carboxamide]: the IC50 against AXL was ≤ 100 nM; at Met, 300 to 1000 nM.

Turning to `COc1cc2nccc(Oc3ccc(NC(=O)c4c(C)n(C)cc(-c5ccc(F)cn5)c4=O)cc3F)c2nc1OC` [Compound 71, N-[4-[(6,7-Dimethoxy-1,5-naphthyridin-4-yl)oxy]-3-fluorophenyl]-5-(5-fluoropyridin-2-yl)-1,2-dimethyl-4-oxopyridine-3-carboxamide], the IC50 on AXL and at Met was ≤ 100 nM each time.

`COc1cc2nccc(Oc3ccc(NC(=O)c4c(C)ncc(-c5cccnc5)c4O)cc3F)c2nc1OC` [Compound 228, N-[4-[(6,7-Dimethoxy-1,5-naphthyridin-4-yl)oxy]-3-fluorophenyl]-4-hydroxy-2-methyl-5-pyridin-3-ylpyridine-3-carboxamide]: the IC50 at AXL and on Met was ≤ 100 nM throughout.

Consider `COc1cc2nccc(Oc3ccc(NC(=O)c4cccn(-c5ccncc5)c4=O)cc3F)c2nc1OC` [Compound 229, N-[4-[(6,7-Dimethoxy-1,5-naphthyridin-4-yl)oxy]-3-fluorophenyl]-2-oxo-1-pyridin-4-ylpyridine-3-carboxamide], for which the IC50 on AXL and at Met was ≤ 100 nM throughout.

Regarding `COc1cc2nccc(Oc3ccc(NC(=O)c4cnc(C)c(-c5ccco5)c4O)cc3)c2nc1OC` [Compound 255, N-[4-[(6,7-Dimethoxy-1,5-naphthyridin-4-yl)oxy]phenyl]-5-(furan-2-yl)-4-hydroxy-6-methylpyridine-3-carboxamide], the IC50 on AXL and on Met was ≤ 100 nM in each case.

As to `CCOc1ccn(-c2ccc(F)cn2)c(=O)c1C(=O)Nc1ccc(Oc2ccnc3cc(OC)c(OC)nc23)cc1` [Compound 244, N-[4-[(6,7-Dimethoxy-1,5-naphthyridin-4-yl)oxy]phenyl]-4-ethoxy-1-(5-fluoropyridin-2-yl)-2-oxopyridine-3-carboxamide], the IC50 at AXL and on Met was ≤ 100 nM each time.

On to `COc1cc2nccc(Oc3ccc(NC(=O)c4c(C)cc(C)n(-c5ccc(F)cn5)c4=O)cc3)c2nc1OC` [Compound 245, N-[4-[(6,7-Dimethoxy-1,5-naphthyridin-4-yl)oxy]phenyl]-1-(5-fluoropyridin-2-yl)-4,6-dimethyl-2-oxopyridine-3-carboxamide], for which the IC50 against AXL and at Met was ≤ 100 nM throughout.

Take `COc1cc2nccc(Oc3ccc(NC(=O)c4ccc(C)n(-c5ccnc(C)c5)c4=O)cc3F)c2nc1OC` [Compound 230, N-[4-[(6,7-Dimethoxy-1,5-naphthyridin-4-yl)oxy]-3-fluorophenyl]-6-methyl-1-(2-methylpyridin-4-yl)-2-oxopyridine-3-carboxamide]: the IC50 at AXL and at Met was ≤ 100 nM each time.

Turning to `COc1cnc2c(Oc3ccc(NC(=O)c4ccc(C)n(-c5ccc(F)cn5)c4=O)cc3F)ccnc2c1` [Compound 45, N-[3-Fluoro-4-[(7-methoxy-1,5-naphthyridin-4-yl)oxy]phenyl]-1-(5-fluoropyridin-2-yl)-6-methyl-2-oxopyridine-3-carboxamide], the IC50 at AXL and at Met was ≤ 100 nM throughout.

As for `COc1cc2nccc(Oc3ccc(NC(=O)c4cccn(-c5ccnc(O)c5)c4=O)cc3F)c2nc1OC` [Compound 248, N-[4-[(6,7-Dimethoxy-1,5-naphthyridin-4-yl)oxy]-3-fluorophenyl]-1-(2-hydroxypyridin-4-yl)-2-oxopyridine-3-carboxamide hydrochloride], the IC50 against AXL is 300 to 1000 nM; at Met, ≤ 100 nM.

As to `COc1cc2nccc(Oc3ccc(NC(=O)c4c(C)nc(C)c(-c5ccc(F)cn5)c4O)cc3F)c2nc1OC` [Compound 218, N-[4-[(6,7-Dimethoxy-1,5-naphthyridin-4-yl)oxy]-3-fluorophenyl]-5-(5-fluoropyridin-2-yl)-4-hydroxy-2,6-dimethylpyridine-3-carboxamide], the IC50 on AXL and at Met was ≤ 100 nM in each case.

Consider `COc1cc2nccc(Oc3ccc(NC(=O)c4ccc(C)n(-c5ccc(F)c(C)n5)c4=O)cc3F)c2nc1OC` [Compound 227, N-[4-[(6,7-Dimethoxy-1,5-naphthyridin-4-yl)oxy]-3-fluorophenyl]-1-(5-fluoro-6-methylpyridin-2-yl)-6-methyl-2-oxopyridine-3-carboxamide hydrochloride], for which the IC50 against AXL and at Met was ≤ 100 nM each time.

Turning to `COCCOc1cc2nccc(Oc3ccc(NC(=O)c4ccc(C)n(-c5ccc(F)cn5)c4=O)cc3F)c2nc1OC` [Compound 50, N-[3-Fluoro-4-[[6-methoxy-7-(2-methoxyethoxy)-1,5-naphthyridin-4-yl]oxy]phenyl]-1-(5-fluoropyridin-2-yl)-6-methyl-2-oxopyridine-3-carboxamide], the IC50 on AXL and on Met was ≤ 100 nM in each case.

Take `COc1cc2nccc(Oc3ccc(NC(=O)c4c5n(cc(-c6cccs6)c4=O)CCOC5)cc3F)c2nc1OC` [Compound 309, N-[4-[(6,7-Dimethoxy-1,5-naphthyridin-4-yl)oxy]-3-fluorophenyl]-8-oxo-7-thiophen-2-yl-3,4-dihydro-1H-pyrido[2,1-c][1,4]oxazine-9-carboxamide]: the IC50 against AXL and on Met was ≤ 100 nM each time.

The values are drawn from patent publication US20230151003A1, “COMPOUNDS AND METHODS OF USE” (Exelixis, Inc., priority 2020, published 2023).
